Source: ChEMBL document CHEMBL5465560, “Selectivity Literature for EUbOPEN Chemogenomic Library” (2024)

Tests used:
[1] = molecular target: Phosphorylase b kinase gamma catalytic chain, skeletal muscle/heart isoform (Homo sapiens) (UniProt Q16816); conditions: at 10 µM
[2] = molecular target: T1, Homeodomain-interacting protein kinase 4 (Homo sapiens) (UniProt Q8NE63); assay: Selectivity interaction (Ambit KINOMEscan and KiNATiv profiling in Jurkat cells) EUB0000090b HIPK4; assay type: cell-based; conditions: at 1 µM
T1 sequence (whole entry): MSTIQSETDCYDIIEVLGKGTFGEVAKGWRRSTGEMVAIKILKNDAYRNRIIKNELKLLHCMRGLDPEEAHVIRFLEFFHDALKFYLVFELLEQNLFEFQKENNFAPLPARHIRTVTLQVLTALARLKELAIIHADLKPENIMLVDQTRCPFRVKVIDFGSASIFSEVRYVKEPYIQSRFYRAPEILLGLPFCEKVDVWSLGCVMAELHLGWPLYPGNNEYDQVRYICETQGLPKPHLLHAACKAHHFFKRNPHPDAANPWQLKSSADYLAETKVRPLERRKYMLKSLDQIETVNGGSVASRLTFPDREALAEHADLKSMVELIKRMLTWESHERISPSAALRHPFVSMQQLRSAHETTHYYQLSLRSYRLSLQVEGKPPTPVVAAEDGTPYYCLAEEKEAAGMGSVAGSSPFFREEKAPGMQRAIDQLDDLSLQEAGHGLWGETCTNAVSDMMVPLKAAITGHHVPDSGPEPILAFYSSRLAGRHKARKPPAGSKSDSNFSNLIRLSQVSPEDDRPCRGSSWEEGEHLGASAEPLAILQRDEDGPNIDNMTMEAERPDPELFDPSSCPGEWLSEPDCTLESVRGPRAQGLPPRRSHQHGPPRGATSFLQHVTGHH

[3] = molecular target: T2, Histone-lysine N-methyltransferase SMYD3 (Homo sapiens) (UniProt Q9H7B4); assay: Selectivity interaction (Methyltransferase screen (Scintillation proximity assays)) EUB0000255b SMYD3
T2 sequence (whole entry): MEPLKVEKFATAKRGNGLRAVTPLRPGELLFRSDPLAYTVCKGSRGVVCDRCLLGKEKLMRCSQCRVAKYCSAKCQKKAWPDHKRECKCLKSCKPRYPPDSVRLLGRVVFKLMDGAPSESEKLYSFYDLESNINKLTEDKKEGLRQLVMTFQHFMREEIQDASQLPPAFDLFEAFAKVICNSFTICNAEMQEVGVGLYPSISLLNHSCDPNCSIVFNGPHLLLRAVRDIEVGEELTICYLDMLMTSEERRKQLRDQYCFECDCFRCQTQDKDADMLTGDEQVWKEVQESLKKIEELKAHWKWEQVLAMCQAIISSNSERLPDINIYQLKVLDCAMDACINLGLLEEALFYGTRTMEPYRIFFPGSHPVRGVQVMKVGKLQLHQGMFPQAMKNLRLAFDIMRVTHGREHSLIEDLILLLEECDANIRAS

[4] = molecular target: Tyrosine-protein kinase CSK (Homo sapiens) (UniProt P41240); assay: Selectivity interaction (Kinase panel (literature)) EUB0001199aCl CSK; conditions: at 1 µM
Sequence of Tyrosine-protein kinase CSK (Homo sapiens) (P41240 2-450 limits assumed): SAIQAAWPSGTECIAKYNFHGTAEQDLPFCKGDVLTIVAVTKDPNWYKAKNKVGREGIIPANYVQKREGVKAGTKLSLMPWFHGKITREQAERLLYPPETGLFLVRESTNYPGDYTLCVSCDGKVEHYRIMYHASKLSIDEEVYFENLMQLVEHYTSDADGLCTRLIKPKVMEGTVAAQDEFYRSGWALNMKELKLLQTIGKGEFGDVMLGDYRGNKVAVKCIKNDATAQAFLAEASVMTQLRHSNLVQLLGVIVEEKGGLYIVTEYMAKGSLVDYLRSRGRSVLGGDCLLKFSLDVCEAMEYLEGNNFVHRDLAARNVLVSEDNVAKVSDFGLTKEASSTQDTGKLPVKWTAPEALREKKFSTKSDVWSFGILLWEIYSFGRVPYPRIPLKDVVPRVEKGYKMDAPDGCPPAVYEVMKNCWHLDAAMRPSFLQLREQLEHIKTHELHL

[5] = molecular target: BMP-2-inducible protein kinase (Homo sapiens) (UniProt Q9NSY1); assay: Selectivity interaction (KinomeScan (DiscoverX)) EUB0001079a BMP2K; conditions: at 1 µM
Sequence of BMP-2-inducible protein kinase (Homo sapiens) (Q9NSY1 whole entry, looked up): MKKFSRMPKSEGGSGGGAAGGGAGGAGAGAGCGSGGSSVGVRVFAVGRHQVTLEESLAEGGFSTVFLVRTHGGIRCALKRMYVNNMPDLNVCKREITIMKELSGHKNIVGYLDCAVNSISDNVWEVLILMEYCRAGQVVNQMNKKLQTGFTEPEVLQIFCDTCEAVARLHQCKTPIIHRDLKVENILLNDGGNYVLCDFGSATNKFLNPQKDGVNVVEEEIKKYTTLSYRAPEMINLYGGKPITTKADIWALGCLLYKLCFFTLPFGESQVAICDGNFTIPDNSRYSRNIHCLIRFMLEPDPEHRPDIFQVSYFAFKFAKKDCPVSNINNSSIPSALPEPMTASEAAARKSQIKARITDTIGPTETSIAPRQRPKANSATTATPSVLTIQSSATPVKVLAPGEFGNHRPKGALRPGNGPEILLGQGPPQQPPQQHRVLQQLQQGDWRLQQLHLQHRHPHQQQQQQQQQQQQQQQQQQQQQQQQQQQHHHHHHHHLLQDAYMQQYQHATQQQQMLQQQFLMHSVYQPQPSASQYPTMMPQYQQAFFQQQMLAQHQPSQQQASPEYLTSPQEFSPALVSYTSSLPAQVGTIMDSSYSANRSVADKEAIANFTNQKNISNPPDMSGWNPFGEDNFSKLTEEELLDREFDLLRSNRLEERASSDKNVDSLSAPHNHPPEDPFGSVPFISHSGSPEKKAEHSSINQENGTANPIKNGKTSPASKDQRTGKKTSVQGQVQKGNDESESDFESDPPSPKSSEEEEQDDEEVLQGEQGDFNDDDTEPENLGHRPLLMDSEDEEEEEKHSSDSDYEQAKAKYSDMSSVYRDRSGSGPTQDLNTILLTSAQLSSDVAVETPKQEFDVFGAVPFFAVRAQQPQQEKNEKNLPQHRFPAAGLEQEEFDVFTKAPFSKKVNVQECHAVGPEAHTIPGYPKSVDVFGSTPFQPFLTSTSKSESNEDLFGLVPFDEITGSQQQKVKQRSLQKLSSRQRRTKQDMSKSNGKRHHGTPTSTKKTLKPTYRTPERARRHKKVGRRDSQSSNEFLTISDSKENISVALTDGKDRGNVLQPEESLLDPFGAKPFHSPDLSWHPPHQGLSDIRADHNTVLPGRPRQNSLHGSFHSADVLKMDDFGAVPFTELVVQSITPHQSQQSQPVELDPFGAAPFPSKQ

[6] = molecular target: Mitogen-activated protein kinase 10 (Homo sapiens, UniProt P53779); assay: Selectivity interaction (KinomeScan (DiscoverX)) EUB0000607a MAPK10; conditions: at 10 µM
Sequence of Mitogen-activated protein kinase 10 (P53779 whole entry): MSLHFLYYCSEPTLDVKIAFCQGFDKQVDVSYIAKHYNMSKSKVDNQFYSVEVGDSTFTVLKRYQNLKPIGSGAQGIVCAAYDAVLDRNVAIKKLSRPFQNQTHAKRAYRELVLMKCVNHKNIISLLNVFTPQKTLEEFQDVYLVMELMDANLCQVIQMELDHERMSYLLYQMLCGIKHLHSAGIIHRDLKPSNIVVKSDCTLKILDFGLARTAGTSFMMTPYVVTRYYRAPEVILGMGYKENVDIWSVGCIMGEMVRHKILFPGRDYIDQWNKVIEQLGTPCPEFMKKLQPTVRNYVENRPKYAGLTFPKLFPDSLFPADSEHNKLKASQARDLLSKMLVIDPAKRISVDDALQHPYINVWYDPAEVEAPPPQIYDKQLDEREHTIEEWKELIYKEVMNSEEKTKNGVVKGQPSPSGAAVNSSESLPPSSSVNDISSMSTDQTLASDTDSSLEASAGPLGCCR

[7] = molecular target: Calcium/calmodulin-dependent protein kinase type II subunit beta (Homo sapiens) (UniProt Q13554); assay: Selectivity interaction (KinomeScan (DiscoverX)) EUB0000045b CAMK2B
Sequence of Calcium/calmodulin-dependent protein kinase type II subunit beta (Homo sapiens) (Q13554 whole entry): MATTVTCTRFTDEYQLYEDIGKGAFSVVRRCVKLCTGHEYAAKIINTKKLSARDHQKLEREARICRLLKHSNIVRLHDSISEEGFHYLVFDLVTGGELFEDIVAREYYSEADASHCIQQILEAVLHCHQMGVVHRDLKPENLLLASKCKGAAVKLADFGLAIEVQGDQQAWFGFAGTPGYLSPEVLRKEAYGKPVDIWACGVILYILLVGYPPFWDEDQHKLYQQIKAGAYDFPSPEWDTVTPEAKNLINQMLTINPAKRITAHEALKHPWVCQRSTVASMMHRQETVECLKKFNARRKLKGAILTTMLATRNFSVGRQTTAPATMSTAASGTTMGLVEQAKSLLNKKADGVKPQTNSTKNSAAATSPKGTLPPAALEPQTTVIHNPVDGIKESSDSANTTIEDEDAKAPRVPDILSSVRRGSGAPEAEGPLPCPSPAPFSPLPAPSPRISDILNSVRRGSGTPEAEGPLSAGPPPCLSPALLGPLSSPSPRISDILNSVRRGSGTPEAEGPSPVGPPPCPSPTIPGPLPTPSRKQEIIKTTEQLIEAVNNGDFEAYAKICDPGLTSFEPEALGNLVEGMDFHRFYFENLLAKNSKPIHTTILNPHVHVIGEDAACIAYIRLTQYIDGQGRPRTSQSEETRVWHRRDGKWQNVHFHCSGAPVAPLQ

[8] = molecular target: Serine/threonine-protein kinase PRP4 homolog (Homo sapiens) (UniProt Q13523); assay: Selectivity interaction (KinomeScan (DiscoverX)) EUB0000595a PRPF4B; conditions: at 10 µM
[9] = tested on: Tyrosine-protein kinase ABL1 (Homo sapiens), P00519 [T315I]; conditions: at 10 µM
[10] = molecular target: T3, Mitogen-activated protein kinase kinase kinase 3 (Homo sapiens) (UniProt Q99759); assay: Selectivity interaction (ActivX KiNativ screen (kinase selectivity in THP-1 cell lysates)) EUB0000639a MAP3K3; assay type: subcellular; conditions: lysate, at 1 µM
T3 sequence (whole entry): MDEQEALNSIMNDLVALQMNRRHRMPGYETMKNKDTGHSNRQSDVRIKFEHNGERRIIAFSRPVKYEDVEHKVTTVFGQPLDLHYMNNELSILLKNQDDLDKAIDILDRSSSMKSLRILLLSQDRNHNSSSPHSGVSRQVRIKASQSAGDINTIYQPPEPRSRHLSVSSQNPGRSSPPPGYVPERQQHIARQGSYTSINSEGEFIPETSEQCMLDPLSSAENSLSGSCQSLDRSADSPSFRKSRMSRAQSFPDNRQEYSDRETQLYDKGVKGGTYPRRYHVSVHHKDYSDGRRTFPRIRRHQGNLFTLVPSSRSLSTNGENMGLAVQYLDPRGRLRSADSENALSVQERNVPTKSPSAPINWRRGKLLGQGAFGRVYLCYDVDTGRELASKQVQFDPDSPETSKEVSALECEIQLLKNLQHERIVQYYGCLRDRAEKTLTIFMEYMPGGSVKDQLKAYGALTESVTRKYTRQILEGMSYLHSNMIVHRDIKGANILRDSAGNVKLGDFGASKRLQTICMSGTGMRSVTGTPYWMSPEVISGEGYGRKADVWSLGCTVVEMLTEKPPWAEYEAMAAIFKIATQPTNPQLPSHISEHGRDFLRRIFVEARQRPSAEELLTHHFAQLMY

[11] = tested on: Phosphatidylinositol 4,5-bisphosphate 3-kinase catalytic subunit alpha isoform (Homo sapiens), P42336 [I800L]; conditions: at 10 µM
Sequence of Phosphatidylinositol 4,5-bisphosphate 3-kinase catalytic subunit alpha isoform (Homo sapiens), P42336 [I800L] (P42336 whole entry I800L, canonical isoform): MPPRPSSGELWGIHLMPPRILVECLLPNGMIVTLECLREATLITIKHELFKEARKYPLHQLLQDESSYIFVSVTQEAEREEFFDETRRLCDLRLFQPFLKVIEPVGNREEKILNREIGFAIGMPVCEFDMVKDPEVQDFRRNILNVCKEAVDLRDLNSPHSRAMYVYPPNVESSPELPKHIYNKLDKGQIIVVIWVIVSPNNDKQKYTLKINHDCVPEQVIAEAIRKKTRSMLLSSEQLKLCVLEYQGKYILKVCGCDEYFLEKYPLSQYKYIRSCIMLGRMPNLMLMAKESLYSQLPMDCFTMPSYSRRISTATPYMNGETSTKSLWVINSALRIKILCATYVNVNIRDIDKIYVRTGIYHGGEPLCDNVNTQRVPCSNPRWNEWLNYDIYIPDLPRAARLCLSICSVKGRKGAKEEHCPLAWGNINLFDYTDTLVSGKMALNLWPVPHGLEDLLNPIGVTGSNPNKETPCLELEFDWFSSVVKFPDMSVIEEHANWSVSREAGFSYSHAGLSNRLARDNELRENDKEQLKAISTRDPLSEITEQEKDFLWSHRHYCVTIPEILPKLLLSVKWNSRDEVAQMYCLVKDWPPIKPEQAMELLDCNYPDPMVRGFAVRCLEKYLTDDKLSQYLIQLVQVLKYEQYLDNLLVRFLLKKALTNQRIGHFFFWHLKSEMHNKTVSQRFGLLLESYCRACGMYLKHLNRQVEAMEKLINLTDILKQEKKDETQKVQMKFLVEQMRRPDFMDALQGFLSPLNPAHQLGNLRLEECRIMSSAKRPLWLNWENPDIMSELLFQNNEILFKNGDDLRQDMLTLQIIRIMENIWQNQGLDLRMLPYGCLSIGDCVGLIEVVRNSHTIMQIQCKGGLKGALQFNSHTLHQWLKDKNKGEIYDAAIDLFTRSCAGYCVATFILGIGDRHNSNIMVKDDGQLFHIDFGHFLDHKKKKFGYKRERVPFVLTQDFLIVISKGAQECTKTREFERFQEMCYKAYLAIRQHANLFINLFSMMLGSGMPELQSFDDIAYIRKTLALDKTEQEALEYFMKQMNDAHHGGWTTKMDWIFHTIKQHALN

[12] = molecular target: MAP kinase-activated protein kinase 2 (Homo sapiens, UniProt P49137); assay: Selectivity interaction (Kinase screening (Nanosyn)) EUB0000604a MAPKAPK2
Sequence of MAP kinase-activated protein kinase 2 (P49137 whole entry, looked up): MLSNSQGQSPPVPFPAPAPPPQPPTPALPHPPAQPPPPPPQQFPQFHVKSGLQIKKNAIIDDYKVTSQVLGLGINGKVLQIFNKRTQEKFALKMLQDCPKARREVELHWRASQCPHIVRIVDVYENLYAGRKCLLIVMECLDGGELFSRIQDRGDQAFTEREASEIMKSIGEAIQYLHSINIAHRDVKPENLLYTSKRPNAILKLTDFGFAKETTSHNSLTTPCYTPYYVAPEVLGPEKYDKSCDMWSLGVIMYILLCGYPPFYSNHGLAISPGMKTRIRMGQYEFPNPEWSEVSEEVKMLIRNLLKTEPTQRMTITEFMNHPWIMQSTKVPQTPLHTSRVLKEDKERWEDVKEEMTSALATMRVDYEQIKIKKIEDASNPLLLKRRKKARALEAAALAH

[13] = molecular target: Serine/threonine-protein kinase 32A (Homo sapiens) (UniProt Q8WU08); assay: Selectivity interaction (KinomeScan (DiscoverX)) EUB0000695a STK32A; conditions: at 100 nM
Sequence of Serine/threonine-protein kinase 32A (Homo sapiens) (Q8WU08 whole entry): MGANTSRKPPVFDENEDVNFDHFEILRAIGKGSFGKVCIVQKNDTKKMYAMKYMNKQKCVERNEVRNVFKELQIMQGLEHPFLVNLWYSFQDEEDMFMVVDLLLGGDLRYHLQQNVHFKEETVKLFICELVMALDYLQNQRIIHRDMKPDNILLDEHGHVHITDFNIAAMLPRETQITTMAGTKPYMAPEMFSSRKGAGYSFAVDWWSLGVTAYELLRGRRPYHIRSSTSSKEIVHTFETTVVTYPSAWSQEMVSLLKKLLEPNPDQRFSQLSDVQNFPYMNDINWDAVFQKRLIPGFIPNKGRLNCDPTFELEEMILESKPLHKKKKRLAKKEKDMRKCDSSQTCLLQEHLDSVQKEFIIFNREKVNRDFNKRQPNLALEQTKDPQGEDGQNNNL

Sequence of Phosphorylase b kinase gamma catalytic chain, skeletal muscle/heart isoform (Homo sapiens) (Q16816 whole entry, looked up, canonical isoform): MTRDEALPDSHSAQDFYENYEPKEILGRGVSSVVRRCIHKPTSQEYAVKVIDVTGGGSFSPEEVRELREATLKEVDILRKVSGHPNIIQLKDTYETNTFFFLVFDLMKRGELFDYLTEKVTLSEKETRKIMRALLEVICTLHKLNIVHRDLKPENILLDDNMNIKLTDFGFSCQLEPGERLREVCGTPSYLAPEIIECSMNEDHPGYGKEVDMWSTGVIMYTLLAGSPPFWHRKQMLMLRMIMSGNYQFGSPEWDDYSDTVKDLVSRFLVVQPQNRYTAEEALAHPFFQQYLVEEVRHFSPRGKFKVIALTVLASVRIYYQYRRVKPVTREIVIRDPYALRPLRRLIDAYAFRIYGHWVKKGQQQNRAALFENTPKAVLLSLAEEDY

## CCN(CC)CCCCNc1ncc2cc(-c3cc(OC)cc(OC)c3)c(NC(=O)NC(C)(C)C)nc2n1
[1]
  % of control: 100%

## CN(C)C/C=C/C(=O)Nc1ccc(C(=O)N2CCCC(Nc3ncc(Cl)c(-c4c[nH]c5ccccc45)n3)C2)cc1 (stereo not given)
[2]
  % of control: 47%

## COCCN1CCC(c2cc(CN(C)C(=O)c3cccc(Oc4ccccc4)c3)ccn2)CC1
[3]; at 1 µM
  % activity: > 95%
[3]; at 10 µM
  % activity: 83%

## CN1Cc2nccc(-c3cn(C)nc3-c3ccc(F)cc3)c2C1=O
[4]
  % of inhibition: -3%

## Nc1cnc(N2CCc3cc(S(=O)(=O)Nc4c(F)cc(Cl)cc4F)cc(N4CCCC4=O)c32)nc1 [TP-020n]
[5]
  % of control: 88%

## CNC(=O)Nc1ccc(-c2nc(N3CC4CCC(C3)O4)c3cnn(C4CCC5(CC4)OCCO5)c3n2)cc1
[6]
  % of control: 86%

## C=CC(=O)Nc1cc(-n2c(=O)ccc3cnc4ccc(-c5ccc(NS(C)(=O)=O)cc5)cc4c32)ccc1C
[7]; at 1 µM
  % of control: 100%
[7]; at 10 µM
  % of control: 74%

## COCC(=O)NC/C=C/c1ccc2ncnc(Nc3ccc(Oc4ccc(C)nc4)c(C)c3)c2c1 [CP-724714]
[8]
  % of control: 93%

## Cc1cc([C@@H](C)Nc2ccccc2C(=O)O)c2nc(N3CCOCC3)cc(=O)n2c1 [AZD-6482]
[9]
  % of control: 100%

## CC[C@@H]1[C@H](F)C(=O)N[C@@H]1COc1nccc2cc(C(N)=O)c(OC)cc12 [ZIMLOVISERTIB]
[10]
  % of inhibition: -7.9%

## CCC(=O)N1CCN(c2ccc(-n3c(=O)ccc4cnc5ccc(-c6cnc7ccccc7c6)cc5c43)cc2C(F)(F)F)CC1
[11]
  % of control: 0%

## Cc1cnc(Nc2ccc(F)cc2Cl)nc1-c1c[nH]c(C(=O)N[C@H](CO)c2cccc(Cl)c2)c1
[12]
  % of inhibition: 0%

## Cc1cc(F)c(C(=O)Nc2cccc(-c3nncn3C(C)C)n2)cc1-n1cnc(C2CC2)c1
[13]
  % of control: 100%
